Holding throughout (assay): Protein kinase inhibition assay
Common to all, as to assay type: biochemical

The target in one assay is Abl(m) (Mus musculus, UniProt P00520). To be noted: read-out: percent residual activity of Abl(m). The method, then:
(§1) Certain compounds were tested for activity in protein kinase inhibition assays. All substrates were dissolved and diluted to working stocks in de-ionized water, apart from histone H1 (10× working stock in 20 mM MOPS pH 7.0), PDKtide (10× working stock in 50 mM Tris pH 7.0) ATF2 (which is typically stored at a 20× working stock in 50 mM Tris pH 7.5, 150 mM NaCl, 0.1 mM EGTA, 0.03% Brij-35, 50% glycerol, 1 mM benzamidine, 0.2 mM PMSF and 0.1% R-mercaptoethanol), KKLNRTLSFAEPG (SEQ ID NO:203) and RRRLSFAEPG (SEQ ID NO:204) (50 mM HEPES pH 7.4) and GGEEEEYFELVKKKK (SEQ ID NO:205) (20 mM MOPS pH 7.0). All kinases were pre-diluted to a 10× working concentration prior to addition into the assay. The composition of the dilution buffer for each kinase is detailed below.
(§2) In a final reaction volume of 25 μl, Abl (m) (5-10 mU) is incubated with 8 mM MOPS pH 7.0, 0.2 mM EDTA, 50 μM EAIYAAPFAKKK (SEQ ID NO:206), 10 mM MgAcetate and [gamma-33P-ATP] (specific activity approx. 500 cpm/pmol, concentration as required). The reaction is initiated by the addition of the MgATP mix. After incubation for 40 minutes at room temperature, the reaction is stopped by the addition of 5 μl of a 3% phosphoric acid solution. 10 μl of the reaction is then spotted onto a P30 filtermat and washed three times for 5 minutes in 75 mM phosphoric acid and once in methanol prior to drying and scintillation counting.

Another assay deals with CDK7/cyclinH/MAT1(h) (Homo sapiens, UniProt P50613). The following applies: read-out: percent residual activity of CDK7/cyclinH/MAT1(h). The method, then: as §1
Chain of CDK7/cyclinH/MAT1(h) (P50613 whole entry): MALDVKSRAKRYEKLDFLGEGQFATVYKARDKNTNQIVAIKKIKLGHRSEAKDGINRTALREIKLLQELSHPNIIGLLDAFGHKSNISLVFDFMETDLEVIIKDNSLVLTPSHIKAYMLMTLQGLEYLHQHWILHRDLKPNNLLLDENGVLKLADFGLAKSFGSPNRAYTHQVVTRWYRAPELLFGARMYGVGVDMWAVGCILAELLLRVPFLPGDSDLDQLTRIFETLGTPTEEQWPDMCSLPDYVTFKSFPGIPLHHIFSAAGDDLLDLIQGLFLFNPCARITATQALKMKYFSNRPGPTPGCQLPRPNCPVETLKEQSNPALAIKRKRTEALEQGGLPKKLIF
Chain of CDK7/cyclinH/MAT1(h) (P51946 whole entry partner): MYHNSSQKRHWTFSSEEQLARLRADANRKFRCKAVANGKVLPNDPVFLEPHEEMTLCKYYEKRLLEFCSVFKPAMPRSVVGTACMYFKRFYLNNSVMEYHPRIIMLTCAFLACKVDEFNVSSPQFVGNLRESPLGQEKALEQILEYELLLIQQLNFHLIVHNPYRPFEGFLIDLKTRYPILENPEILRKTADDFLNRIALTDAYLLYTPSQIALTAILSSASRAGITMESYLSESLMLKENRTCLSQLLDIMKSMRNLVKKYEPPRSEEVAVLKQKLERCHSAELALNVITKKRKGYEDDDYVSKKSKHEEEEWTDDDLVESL
Chain of CDK7/cyclinH/MAT1(h) (P51948 whole entry partner): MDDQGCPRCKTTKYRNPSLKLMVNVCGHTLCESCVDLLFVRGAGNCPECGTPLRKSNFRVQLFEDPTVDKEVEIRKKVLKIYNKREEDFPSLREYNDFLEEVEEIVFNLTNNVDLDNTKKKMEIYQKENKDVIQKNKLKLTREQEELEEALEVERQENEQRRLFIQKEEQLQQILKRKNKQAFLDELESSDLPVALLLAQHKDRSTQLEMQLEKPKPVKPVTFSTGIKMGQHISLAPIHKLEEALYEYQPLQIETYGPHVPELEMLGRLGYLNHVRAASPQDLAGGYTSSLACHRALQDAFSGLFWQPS
as §2, with “μl, CDK7/cyclinH/MAT1 (h)” for “μl, Abl (m)”, “EDTA, 500” for “EDTA, 50”, “μM peptide,” for “μM EAIYAAPFAKKK (SEQ ID NO:206),”, “and [y-33P-ATP]” for “and [gamma-33P-ATP]”

The target in another assay is EphA5(h) (Homo sapiens, UniProt P54756). To be noted: read-out: percent residual activity of EphA5(h). The method, then: as §1
Chain of EphA5(h) (P54756 25-1037): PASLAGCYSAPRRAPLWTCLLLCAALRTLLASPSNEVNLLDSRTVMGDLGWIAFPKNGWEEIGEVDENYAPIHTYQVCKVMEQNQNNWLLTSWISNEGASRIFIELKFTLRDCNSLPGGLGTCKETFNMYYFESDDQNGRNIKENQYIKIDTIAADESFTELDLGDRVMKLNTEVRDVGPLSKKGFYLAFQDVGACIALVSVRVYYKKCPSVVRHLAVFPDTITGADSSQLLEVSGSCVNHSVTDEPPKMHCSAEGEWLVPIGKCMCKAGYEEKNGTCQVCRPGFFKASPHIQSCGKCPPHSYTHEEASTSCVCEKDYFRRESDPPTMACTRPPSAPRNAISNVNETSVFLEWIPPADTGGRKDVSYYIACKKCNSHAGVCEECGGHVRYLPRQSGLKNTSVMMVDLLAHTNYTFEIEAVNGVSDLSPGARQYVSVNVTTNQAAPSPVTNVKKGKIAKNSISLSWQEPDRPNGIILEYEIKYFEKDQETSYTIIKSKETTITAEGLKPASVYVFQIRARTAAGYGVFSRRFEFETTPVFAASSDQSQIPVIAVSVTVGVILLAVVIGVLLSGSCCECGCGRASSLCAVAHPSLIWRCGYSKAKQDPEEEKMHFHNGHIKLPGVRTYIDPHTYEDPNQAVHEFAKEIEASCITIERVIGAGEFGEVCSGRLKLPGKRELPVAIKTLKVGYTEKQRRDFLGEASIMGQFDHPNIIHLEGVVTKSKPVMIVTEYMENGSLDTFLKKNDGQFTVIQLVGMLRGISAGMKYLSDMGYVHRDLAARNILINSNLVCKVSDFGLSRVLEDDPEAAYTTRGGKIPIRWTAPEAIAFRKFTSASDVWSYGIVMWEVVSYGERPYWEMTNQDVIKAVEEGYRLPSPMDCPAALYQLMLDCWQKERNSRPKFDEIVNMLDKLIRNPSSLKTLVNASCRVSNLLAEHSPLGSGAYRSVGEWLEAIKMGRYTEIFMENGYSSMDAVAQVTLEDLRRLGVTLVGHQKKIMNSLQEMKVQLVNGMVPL
as §2, with “EphA5 (h)” for “Abl (m)”, “2.5 mM MnCl2, 0.1 mg/ml poly (Glu, Tyr) 4:1,” for “50 μM EAIYAAPFAKKK (SEQ ID NO:206),”, “Filtermat A” for “P30 filtermat”

For another assay, the target named is FGFR4(h) (Homo sapiens, UniProt P22455). The following applies: read-out: percent residual activity of FGFR4(h). The method, then:
as §1
as §2, with “FGFR4 (h)” for “Abl (m)”, “10 mM MnCl2, 0.1 mg/ml poly(Glu, Tyr) 4:1,” for “50 μM EAIYAAPFAKKK (SEQ ID NO:206),”, “Filtermat A” for “P30 filtermat”

The next assay concerns the target Fms(h) (Homo sapiens, UniProt P07333). To be noted: read-out: percent residual activity of Fms(h). The method, then:
as §1
as §2, with “μl, Fms (h)” for “μl, Abl (m)”, “EDTA, 250” for “EDTA, 50”, “μM KKKSPGEYVNIEFG” for “μM EAIYAAPFAKKK”, “ID NO:207),” for “ID NO:206),”, “and [y-33P-ATP]” for “and [gamma-33P-ATP]”

The target in the next assay is IRR(h) (Homo sapiens, UniProt P14616). The following applies: read-out: percent residual activity of IRR(h). How it is done: as §1
as §2, with “IRR (h)” for “Abl (m)”, “0.33 mg/ml myelin basic protein,” for “50 μM EAIYAAPFAKKK (SEQ ID NO:206),”

The structures appear in SMILES notation.

Chain of FGFR4(h) (P22455 22-802): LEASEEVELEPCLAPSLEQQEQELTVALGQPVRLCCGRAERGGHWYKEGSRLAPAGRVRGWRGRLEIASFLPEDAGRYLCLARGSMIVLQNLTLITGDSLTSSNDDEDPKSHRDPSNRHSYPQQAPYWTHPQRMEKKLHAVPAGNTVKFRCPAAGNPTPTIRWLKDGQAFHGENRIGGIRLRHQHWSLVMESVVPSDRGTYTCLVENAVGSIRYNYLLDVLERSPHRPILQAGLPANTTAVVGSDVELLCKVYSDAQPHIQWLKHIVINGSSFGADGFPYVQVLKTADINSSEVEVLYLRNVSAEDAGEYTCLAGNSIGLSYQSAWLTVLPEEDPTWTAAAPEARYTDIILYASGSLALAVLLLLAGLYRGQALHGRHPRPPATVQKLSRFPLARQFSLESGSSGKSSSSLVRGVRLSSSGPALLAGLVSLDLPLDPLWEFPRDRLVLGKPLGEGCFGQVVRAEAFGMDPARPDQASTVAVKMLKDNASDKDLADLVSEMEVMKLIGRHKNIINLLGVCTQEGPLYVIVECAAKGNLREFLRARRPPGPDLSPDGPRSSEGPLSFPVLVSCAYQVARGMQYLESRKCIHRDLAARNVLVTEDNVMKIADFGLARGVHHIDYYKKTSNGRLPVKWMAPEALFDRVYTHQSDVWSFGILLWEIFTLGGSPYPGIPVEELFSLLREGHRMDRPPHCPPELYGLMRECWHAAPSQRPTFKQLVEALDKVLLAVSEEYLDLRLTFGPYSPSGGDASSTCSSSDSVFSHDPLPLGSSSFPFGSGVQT
Chain of Fms(h) (P07333 20-972): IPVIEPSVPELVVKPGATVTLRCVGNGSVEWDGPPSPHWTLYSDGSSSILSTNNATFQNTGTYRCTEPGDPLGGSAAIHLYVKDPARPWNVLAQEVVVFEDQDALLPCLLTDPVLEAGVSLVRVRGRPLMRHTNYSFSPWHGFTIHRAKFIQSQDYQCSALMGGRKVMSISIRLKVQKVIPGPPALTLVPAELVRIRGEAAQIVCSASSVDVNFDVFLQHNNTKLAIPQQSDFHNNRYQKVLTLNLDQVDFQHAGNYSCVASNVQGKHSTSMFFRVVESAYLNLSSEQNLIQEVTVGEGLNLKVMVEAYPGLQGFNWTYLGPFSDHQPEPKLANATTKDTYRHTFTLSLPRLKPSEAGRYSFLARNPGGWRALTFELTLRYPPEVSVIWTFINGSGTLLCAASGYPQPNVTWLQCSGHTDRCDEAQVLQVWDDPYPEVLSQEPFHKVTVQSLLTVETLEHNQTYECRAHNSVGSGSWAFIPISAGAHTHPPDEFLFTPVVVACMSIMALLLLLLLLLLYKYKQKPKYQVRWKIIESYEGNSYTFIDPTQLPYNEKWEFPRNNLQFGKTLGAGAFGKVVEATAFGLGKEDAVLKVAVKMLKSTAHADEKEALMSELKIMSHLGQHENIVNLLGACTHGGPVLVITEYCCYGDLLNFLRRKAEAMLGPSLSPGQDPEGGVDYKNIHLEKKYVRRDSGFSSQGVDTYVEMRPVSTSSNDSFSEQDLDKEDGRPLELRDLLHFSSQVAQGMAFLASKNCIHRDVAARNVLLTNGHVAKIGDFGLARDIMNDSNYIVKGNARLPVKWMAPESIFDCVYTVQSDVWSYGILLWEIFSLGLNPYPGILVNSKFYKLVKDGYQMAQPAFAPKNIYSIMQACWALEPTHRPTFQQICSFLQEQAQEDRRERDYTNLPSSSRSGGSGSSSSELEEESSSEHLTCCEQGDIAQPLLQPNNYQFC
Chain of Abl(m) (P00520 whole entry): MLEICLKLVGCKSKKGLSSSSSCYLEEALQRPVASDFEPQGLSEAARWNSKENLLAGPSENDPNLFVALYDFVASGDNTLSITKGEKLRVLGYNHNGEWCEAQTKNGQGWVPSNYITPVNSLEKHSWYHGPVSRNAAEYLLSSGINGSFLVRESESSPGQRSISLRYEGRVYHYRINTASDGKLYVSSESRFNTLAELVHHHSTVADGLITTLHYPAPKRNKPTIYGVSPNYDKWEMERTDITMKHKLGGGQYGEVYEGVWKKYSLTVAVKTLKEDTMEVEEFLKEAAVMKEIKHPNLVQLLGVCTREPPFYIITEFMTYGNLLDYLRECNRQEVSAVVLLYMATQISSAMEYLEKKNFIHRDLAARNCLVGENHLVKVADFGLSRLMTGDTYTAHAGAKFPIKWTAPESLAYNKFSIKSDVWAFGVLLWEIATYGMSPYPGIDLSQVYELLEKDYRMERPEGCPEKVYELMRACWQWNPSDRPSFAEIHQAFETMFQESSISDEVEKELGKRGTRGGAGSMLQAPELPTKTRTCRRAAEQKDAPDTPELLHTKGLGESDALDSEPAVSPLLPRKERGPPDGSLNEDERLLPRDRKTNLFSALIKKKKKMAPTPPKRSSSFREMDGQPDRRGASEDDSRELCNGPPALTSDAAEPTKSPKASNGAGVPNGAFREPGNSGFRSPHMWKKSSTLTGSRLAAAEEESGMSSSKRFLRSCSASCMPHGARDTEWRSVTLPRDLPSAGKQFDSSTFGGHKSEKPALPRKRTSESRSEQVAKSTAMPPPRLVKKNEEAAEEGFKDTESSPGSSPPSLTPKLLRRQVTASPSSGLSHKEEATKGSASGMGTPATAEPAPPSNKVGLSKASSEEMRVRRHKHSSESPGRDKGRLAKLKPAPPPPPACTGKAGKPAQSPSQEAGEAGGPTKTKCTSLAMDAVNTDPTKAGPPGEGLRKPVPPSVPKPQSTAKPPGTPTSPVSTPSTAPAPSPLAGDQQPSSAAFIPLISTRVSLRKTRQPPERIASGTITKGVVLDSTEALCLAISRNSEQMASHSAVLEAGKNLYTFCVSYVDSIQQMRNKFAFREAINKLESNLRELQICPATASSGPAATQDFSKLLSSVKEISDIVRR

Consider `CN1CCCC1CCNC(=O)c1cn2c3c(c(N4CCC(c5cnccn5)C4)c(F)cc3c1=O)Oc1cc3ccccc3cc1-2` (stereo not drawn) [Compound A-1], for which the remaining activity at 2.5 µM on Abl(m) turned out to be 9%; at CDK7/cyclinH/MAT1(h), 72%; on EphA5(h), 111%; on FGFR4(h) it was 112%; at Fms(h), 131%; on IRR(h) it was 97%.

As to `CC(=O)N1CCN(c2ccc3c(=O)c(C(=O)NCCN4CCCC4)c4n(C)c5ccccc5n4c3n2)CC1` [Compound B-1], the remaining activity at 2.5 µM on Abl(m) was 104%; at CDK7/cyclinH/MAT1(h) it was 95%; on EphA5(h) it was 101%; on FGFR4(h), 104%; at Fms(h) it was 107%; on IRR(h) it was 103%.
